# Where two headings read alike, the source gives them in different places.
# Assays:
# human BCRP = biological target: T1, human BCRP (Homo sapiens, UniProt Q9UNQ0); settings: E3S probe; for ATP dependent transport / Relative ATP dependent transport: mean (n=3) ± SD
# T1 sequence (Q9UNQ0 1-655): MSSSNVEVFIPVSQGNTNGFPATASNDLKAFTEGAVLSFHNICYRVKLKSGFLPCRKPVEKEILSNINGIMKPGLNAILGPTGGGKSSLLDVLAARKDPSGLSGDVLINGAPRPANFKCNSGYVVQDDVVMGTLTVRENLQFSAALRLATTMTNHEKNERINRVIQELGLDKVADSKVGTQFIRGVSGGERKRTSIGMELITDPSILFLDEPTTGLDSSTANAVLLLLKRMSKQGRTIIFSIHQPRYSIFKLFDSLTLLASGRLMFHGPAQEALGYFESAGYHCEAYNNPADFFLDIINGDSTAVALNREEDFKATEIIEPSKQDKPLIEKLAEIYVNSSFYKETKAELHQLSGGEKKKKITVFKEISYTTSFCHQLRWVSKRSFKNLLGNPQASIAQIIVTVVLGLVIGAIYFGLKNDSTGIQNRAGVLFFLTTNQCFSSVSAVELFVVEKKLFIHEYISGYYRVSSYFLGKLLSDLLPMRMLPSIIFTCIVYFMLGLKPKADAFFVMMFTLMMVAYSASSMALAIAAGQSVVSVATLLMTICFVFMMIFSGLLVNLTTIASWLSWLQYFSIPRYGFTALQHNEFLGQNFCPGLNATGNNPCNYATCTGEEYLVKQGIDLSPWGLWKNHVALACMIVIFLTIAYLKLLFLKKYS
# Method: (§1) The incubations were carried out in the presence of 4 mM ATP or AMP to distinguish between transporter-mediated uptake and passive diffusion into the vesicles. […] Afterwards, the reaction mixtures were pre-incubated for 15 min at 37 °C for MRP1 or at 32 °C for BCRP, MDR1 and MRP4, respectively. The transporter assay was initiated through the addition of 25 μL of pre-warmed 12 mM MgATP (or 12 mM AMP in assay buffer as a background control). The reactions were quenched through the addition of 200 μL of ice-cold washing buffer and immediate filtration via glass fiber filters mounted onto a 96-well plate (filter plate). The filters were washed (5 × 200 μL of ice-cold washing buffer) and dried, and the amount of probe substrate inside the filtered vesicles was determined using LSC. The experiments were conducted in triplicate.
# (§2) Calculation of ATP-dependent transport and inhibition for vesicular transport inhibition
# (§3) For all wells the amount of the translocated probe substrate was determined in counts per minute (cpm).
# (§4) ATP-dependent transport (pmol/mg protein/min) is calculated for each concentration using the following
# 𝐴𝑐𝑐𝐴𝑇𝑃 ∙ 𝑉 ∙ 𝐶𝐶 𝐴𝑐𝑐𝐴𝑀𝑃 ∙𝑉 ∙𝐶𝐶
# (§5) 𝐴𝑇𝑃 − 𝑑𝑒𝑝𝑒𝑛𝑑𝑒𝑛𝑡 𝑎𝑐𝑐𝑢𝑚𝑢𝑙𝑎𝑡𝑖𝑜𝑛 = ( 𝑇𝐶𝑃𝑀 𝑠𝑢𝑏) − ( 𝑇𝐶𝑃𝑀 𝑠𝑢𝑏)
# (§6) • AccATP: probe substrate accumulation with ATP (cpm)
# (§7) • AccAMP: probe substrate accumulation with AMP (cpm)
# (§8) • Tcpm: cpm in dosing solution V: volume per well (µL)
# (§9) • CCsub: probe substrate concentration (µM)
# • Prot: total protein per well (mg)
# • t: incubation time (min)
# (§10) Relative ATP-dependent transport (%) values were calculated using the following equation:
# (§11) 𝑅𝑒𝑙𝑎𝑡𝑖𝑣𝑒 𝐴𝑇𝑃 − 𝑑𝑒𝑝𝑒𝑛𝑑𝑒𝑛𝑡 𝑡𝑟𝑎𝑛𝑠𝑝𝑜𝑟𝑡 (%) = 𝐴 − 𝐵 ∙ 100
# (§12) • A: amount of translocated substrate in the presence of test substance (TS) and ATP
# (§13) • B: amount of translocated substrate in the presence of test substance (TS) and AMP
# (§14) • C: amount of translocated substrate in the presence of solvent and ATP
# (§15) • D: amount of translocated substrate in the presence of solvent and AMP
# (§16) Relative inhibition (%) is calculated by setting probe substrate transport in the absence of test substance as
# (§17) 𝑅𝑒𝑙𝑎𝑡𝑖𝑣𝑒 𝑖𝑛ℎ𝑖𝑏𝑖𝑡𝑖𝑜𝑛 (%) = 𝐴𝑐𝑐𝑆𝑝𝑒𝑐𝑖𝑓𝑖𝑐,𝑥 ∙100
# (§18) • Accspecific,x: transporter specific accumulation for a given sample (pmol/mg/min)
# (§19) • Accspecific,vehicle: transporter specific accumulation for a solvent control (pmol/mg/min)
# Data are expressed as m ean
# measured in the vesicular transport inhibition assay.
# Nominal ATP Relative ATP Relative
# Compound concentration [µM] dependent transport dependent transport inhibition [%]
# [pmol/mg/min] [% of control]
# Data are expressed as mean (n=3) ± SD.
# human OAT1 = biological target: T2, human OAT1 (Homo sapiens, UniProt Q4U2R8); assay: SLC transporter substrate assay, HEK293-OAT1-LV vs control HEK293-Mock-B-LV cells; settings: 20 min
# T2 sequence (Q4U2R8 1-563): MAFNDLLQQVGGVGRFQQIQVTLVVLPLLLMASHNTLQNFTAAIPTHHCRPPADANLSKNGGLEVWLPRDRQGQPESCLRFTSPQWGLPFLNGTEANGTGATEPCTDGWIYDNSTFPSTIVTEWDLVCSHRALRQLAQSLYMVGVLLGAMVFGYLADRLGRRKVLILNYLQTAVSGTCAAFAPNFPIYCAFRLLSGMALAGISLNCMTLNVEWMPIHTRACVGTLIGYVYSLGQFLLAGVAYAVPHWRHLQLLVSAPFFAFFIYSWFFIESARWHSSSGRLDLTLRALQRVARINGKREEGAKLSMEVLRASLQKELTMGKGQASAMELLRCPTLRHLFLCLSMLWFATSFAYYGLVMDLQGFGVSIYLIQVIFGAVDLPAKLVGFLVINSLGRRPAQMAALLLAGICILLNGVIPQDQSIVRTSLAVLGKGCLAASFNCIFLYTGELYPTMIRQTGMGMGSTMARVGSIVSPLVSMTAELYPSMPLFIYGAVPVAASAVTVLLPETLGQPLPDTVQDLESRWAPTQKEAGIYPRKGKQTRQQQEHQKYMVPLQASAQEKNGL
# MRP1 = MRP1 (Homo sapiens, UniProt P33527); settings: for Relative inhibition / ATP dependent transport / Relative ATP dependent transport: E217βG probe; for ATP dependent transport / Relative ATP dependent transport: mean (n=3) ± SD
# Sequence of MRP1 (P33527 whole entry): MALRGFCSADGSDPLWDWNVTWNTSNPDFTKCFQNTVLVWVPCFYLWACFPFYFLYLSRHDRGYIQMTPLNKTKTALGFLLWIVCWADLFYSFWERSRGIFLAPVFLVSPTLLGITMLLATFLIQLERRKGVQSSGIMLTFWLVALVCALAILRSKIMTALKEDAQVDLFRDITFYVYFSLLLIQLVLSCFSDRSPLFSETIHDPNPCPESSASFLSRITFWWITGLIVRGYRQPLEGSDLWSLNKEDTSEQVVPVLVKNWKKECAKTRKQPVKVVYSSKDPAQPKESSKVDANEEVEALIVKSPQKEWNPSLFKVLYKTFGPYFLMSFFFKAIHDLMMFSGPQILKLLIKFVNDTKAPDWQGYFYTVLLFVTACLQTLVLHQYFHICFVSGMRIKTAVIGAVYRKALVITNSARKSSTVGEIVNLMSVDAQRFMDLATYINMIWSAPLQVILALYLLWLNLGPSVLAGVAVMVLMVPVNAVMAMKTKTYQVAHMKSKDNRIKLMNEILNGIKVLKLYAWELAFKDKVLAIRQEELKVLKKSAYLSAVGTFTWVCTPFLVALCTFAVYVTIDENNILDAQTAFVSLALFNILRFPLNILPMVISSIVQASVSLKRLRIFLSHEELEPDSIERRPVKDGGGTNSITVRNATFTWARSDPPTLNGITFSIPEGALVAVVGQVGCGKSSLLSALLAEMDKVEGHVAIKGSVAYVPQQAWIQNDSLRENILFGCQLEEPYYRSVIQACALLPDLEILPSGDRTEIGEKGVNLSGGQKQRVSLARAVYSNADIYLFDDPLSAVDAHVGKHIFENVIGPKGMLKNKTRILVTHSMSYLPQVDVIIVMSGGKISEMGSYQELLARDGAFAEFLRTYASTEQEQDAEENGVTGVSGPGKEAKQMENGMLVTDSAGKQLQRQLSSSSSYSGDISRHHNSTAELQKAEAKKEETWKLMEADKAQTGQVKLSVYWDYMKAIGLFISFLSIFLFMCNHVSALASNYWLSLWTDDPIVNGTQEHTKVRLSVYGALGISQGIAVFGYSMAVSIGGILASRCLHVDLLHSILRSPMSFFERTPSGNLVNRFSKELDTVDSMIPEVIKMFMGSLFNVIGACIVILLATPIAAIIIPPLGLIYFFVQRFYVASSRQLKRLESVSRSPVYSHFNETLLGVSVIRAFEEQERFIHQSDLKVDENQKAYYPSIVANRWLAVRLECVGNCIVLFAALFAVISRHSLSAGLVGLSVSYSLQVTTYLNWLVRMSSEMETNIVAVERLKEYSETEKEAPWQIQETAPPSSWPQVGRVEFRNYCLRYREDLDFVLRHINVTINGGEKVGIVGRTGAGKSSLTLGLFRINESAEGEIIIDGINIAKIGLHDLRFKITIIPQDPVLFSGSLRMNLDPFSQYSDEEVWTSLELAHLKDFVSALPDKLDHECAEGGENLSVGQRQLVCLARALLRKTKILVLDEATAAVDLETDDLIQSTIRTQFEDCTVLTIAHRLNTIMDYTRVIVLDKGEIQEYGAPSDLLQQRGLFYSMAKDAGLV
# Method: as §1, §2, §3, §4
# 𝐴𝑐𝑐𝐴𝑇𝑃 ∙ 𝑉 ∙ 𝐶𝐶 𝐴𝑐𝑐𝐴𝑀𝑃 ∙𝑉 ∙𝐶𝐶
# as §5, §6, §7, §8, §9
# • Prot: total protein per well (mg)
# • t: incubation time (min)
# as §10, §11, §12, §13, §14, §15, §16, §17, §18, §19
# [1] = 0.03 µM nominal + Probenecid 300 µM
# [2] = 0.30 µM nominal + Probenecid 300 µM
compound,measurement,setting,value
"[3H]C(c1ccc2ccccc2c1)C([3H])(NC(=O)C1CCC(CNC(=O)CN2CCN(CC(=O)[O-])CCN(CC(=O)[O-])CCN(CC(=O)[O-])CC2)CC1)C(=O)NCCCCC(NC(=O)NC(CCC(=O)O)C(=O)O)C(=O)O.[Lu+3] (stereo not drawn) [([α,β-^3H]Nal)Lu-PSMA-617]",Relative inhibition,human BCRP; test substance 0.30 µM nominal,1%
same,ATP dependent transport,human BCRP; test substance 0.30 µM nominal,23285.00 ± 769.03 pmol/mg/min
same,Relative ATP dependent transport,human BCRP; test substance 0.30 µM nominal,98.5 ± 3.67 % of control
same,Relative inhibition,human BCRP; test substance 3.00 µM nominal,0%
same,ATP dependent transport,human BCRP; test substance 3.00 µM nominal,23687.00 ± 869.33 pmol/mg/min
same,Relative ATP dependent transport,human BCRP; test substance 3.00 µM nominal,100.22 ± 4.06 % of control
same,Accumulation in OAT1 transporter expressing cells,human OAT1; [1],0.04 ± 0.00 pmol/mg protein
same,Accumulation in control cells,human OAT1; [1],0.03 ± 0.00 pmol/mg protein
same,"Accumulation, active transport",human OAT1; [1],0.00 ± 0.00 pmol/mg protein
same,Fold accumulation,human OAT1; [1],1.10
same,Accumulation in OAT1 transporter expressing cells,"human OAT1; 0.03 µM nominal, no inhibitor",0.06 ± 0.01 pmol/mg protein
same,Accumulation in control cells,"human OAT1; 0.03 µM nominal, no inhibitor",0.05 ± 0.01 pmol/mg protein
same,"Accumulation, active transport","human OAT1; 0.03 µM nominal, no inhibitor",0.01 ± 0.01 pmol/mg protein
same,Fold accumulation,"human OAT1; 0.03 µM nominal, no inhibitor",1.17
same,Accumulation in OAT1 transporter expressing cells,human OAT1; [2],0.62 ± 0.13 pmol/mg protein
same,Accumulation in control cells,human OAT1; [2],0.44 ± 0.10 pmol/mg protein
same,"Accumulation, active transport",human OAT1; [2],0.18 ± 0.16 pmol/mg protein
same,Fold accumulation,human OAT1; [2],1.42
same,Accumulation in OAT1 transporter expressing cells,"human OAT1; 0.30 µM nominal, no inhibitor",0.36 ± 0.02 pmol/mg protein
same,Accumulation in control cells,"human OAT1; 0.30 µM nominal, no inhibitor",0.34 ± 0.06 pmol/mg protein
same,"Accumulation, active transport","human OAT1; 0.30 µM nominal, no inhibitor",0.01 ± 0.06 pmol/mg protein
same,Fold accumulation,"human OAT1; 0.30 µM nominal, no inhibitor",1.04
same,"Max. transporter-specific fold accumulation, without inhibitor",human OAT1; 0.03 µM,1.17
same,Uptake via transporter (OAT1),human OAT1; absence and presence of probenecid,not taken up
same,"Max. transporter-specific fold accumulation, with inhibitor","human OAT1; Probenecid, 0.03 µM",1.10
same,Inhibitor assessment (MRP1),"MRP1; 0.30 and 3.00 µM, inhibition >20% defined as significant",no inhibitor
same,Relative inhibition,MRP1; test substance 0.30 µM nominal,9%
same,ATP dependent transport,MRP1; test substance 0.30 µM nominal,734.00 ± 31.29 pmol/mg/min
same,Relative ATP dependent transport,MRP1; test substance 0.30 µM nominal,91.45 ± 7.39 % of control
same,Relative inhibition,MRP1; test substance 3.00 µM nominal,9%
same,ATP dependent transport,MRP1; test substance 3.00 µM nominal,730.00 ± 37.02 pmol/mg/min
same,Relative ATP dependent transport,MRP1; test substance 3.00 µM nominal,90.95 ± 7.76 % of control

# Source: PMC11053447, “Human ABC and SLC Transporters: The Culprit Responsible for Unspecific PSMA-617 Uptake?” (Pharmaceuticals, 2024)
